The results in this text go back to patent US6342516B1, “Phenylazole compounds, process for producing the same and drugs for hyperlipemia” (Nippon Soda Co., Ltd., priority 1998, dated 2002).

The subject of the experiment is cholesterol-fed hamsters. Put plainly: Effect on serum lipids of cholesterol-fed hamsters (serum total cholesterol and triglyceride reduction rate). Format: in vivo. As to conditions: cholesterol-fed Syrian hamsters, oral once a day for 5 days. How it is done:
Pharmacological Test Example 1: Effect on serum lipids of cholesterol-fed hamsters
Syrian hamsters (Std:Syrian, Male, 4 weeks old) were freely fed with chow containing 1% cholesterol and 10% coconut oil for 3 weeks ad libitum.
At the last week of feeding, each of the test compounds was dissolved or suspended in either 0.1% hydrochloric acid solution or 1% polyethylene-hydrogenated castor oil (NIKKOL HCO-60) solution and was orally administrated to hamsters once a day for 5 days. For the hamsters of the control group, only the solvent was orally administered. Then, blood was collected from the abdominal vein under the condition of anesthesia with pentobarbital at 2-4 hours after the last administration, and the serum in the blood was separated. The serum total cholesterol value and the serum triglyceride value were determined by using autobiochemical analyzer with analizing kits, and reduction rate of the serum lipids was determined according to the equation indicated below based on the analyzed values for respective hamster groups.
Serum lipids reduction rate (%)=(Amount of serum lipids of the control group−Amount of serum lipids of the group administrated with the test compound)/Amount of serum lipids of the control group×100

With `O=C(Nc1ccc(-n2ccnc2)cc1)C1CCc2ccccc2O1` (racemic) [4-11], where the note is “dose 25 mg/kg”, the “Serum lipids reduction rate comparing to Control group (%), Means of 3 animals: Total cholesterol” value was found to be 43% and the “Serum lipids reduction rate comparing to Control group (%), Means of 3 animals: Triglyceride” value was found to be 47%.
The matching figures for `CC1(C(=O)Nc2ccc(-n3ccnc3)cc2)Cc2ccccc2O1` (racemic) [4-12]: 27% and 41%.
On to `O=C(Nc1ccc(-n2ccnc2)cc1)C1CCCO1` (racemic) [4-17], for which, where the note is “dose 12.5 mg/kg”, the “Serum lipids reduction rate comparing to Control group (%), Means of 3 animals: Total cholesterol” value worked out at 35% and the “Serum lipids reduction rate comparing to Control group (%), Means of 3 animals: Triglyceride” value came out at 53%.
The matching figures for `O=C(Nc1ccc(-n2ccnc2)cc1)c1cc2ccccc2[nH]1` [4-2]: 32% and 45%.
For the compound `Cn1ccc(C(=O)Nc2ccc(-n3ccnc3)cc2)c1` [4-3], under “dose 25 mg/kg”, the “Serum lipids reduction rate comparing to Control group (%), Means of 3 animals: Total cholesterol” value is 75% and the “Serum lipids reduction rate comparing to Control group (%), Means of 3 animals: Triglyceride” value turned out to be 91%.
With `Cn1c(C(=O)Nc2ccc(-n3ccnc3)cc2)cc2ccccc21` [4-4], where the note is “dose 12.5 mg/kg”, the “Serum lipids reduction rate comparing to Control group (%), Means of 3 animals: Total cholesterol” value came to 23% and the “Serum lipids reduction rate comparing to Control group (%), Means of 3 animals: Triglyceride” value is 32%.
Taken in the same sequence, the figures for `COc1ccc2c(c1)cc(C(=O)Nc1ccc(-n3ccnc3)cc1)n2C` [4-6] were 41% and 71%.
With `Cc1ccc2[nH]c(C(=O)Nc3ccc(-n4ccnc4)cc3)cc2c1` [4-7], under “dose 25 mg/kg”, the “Serum lipids reduction rate comparing to Control group (%), Means of 3 animals: Total cholesterol” value is 27% and the “Serum lipids reduction rate comparing to Control group (%), Means of 3 animals: Triglyceride” value is given as 31%.
The matching figures for `O=C(Nc1ccc(-n2ccnc2)cc1)c1cc2cc(F)ccc2[nH]1` [4-9]: 44% and 61%.
Taken in the same sequence, the figures for `Cc1cc(C(=O)Nc2ccc(-n3ccnc3)cc2)n(C)n1` [4-14] were 66% and 42%.
Regarding `Cc1cc(C(=O)Nc2ccc(-n3ccnc3)cc2)[nH]n1` [4-15], for the setting “dose 12.5 mg/kg”, the “Serum lipids reduction rate comparing to Control group (%), Means of 3 animals: Total cholesterol” value is recorded as 37% and the “Serum lipids reduction rate comparing to Control group (%), Means of 3 animals: Triglyceride” value stood at 73%.
`CC(C)(C)c1cc(C(=O)Nc2ccc(-n3ccnc3)cc2)[nH]n1` [4-16]: where the note is “dose 25 mg/kg”, the “Serum lipids reduction rate comparing to Control group (%), Means of 3 animals: Total cholesterol” value was determined as 34% and the “Serum lipids reduction rate comparing to Control group (%), Means of 3 animals: Triglyceride” value is on record as 34%.
Take `CC12CCC(C(=O)Nc3ccc(-n4ccnc4)cc3)(OC1=O)C2(C)C` (stereo not drawn) [4-19]: for the setting “dose 25 mg/kg”, the “Serum lipids reduction rate comparing to Control group (%), Means of 3 animals: Total cholesterol” value was determined as 19% and the “Serum lipids reduction rate comparing to Control group (%), Means of 3 animals: Triglyceride” value is reported as 50%.
Taken in the same sequence, the figures for `O=C(Nc1ccc(-n2ccnc2)cc1)c1ccc2c(c1)OCO2` [4-21] were 51% and 57%.
Taken in the same sequence, the figures for `O=C(Nc1ccc(-n2ccnc2)cc1)c1nccc2ccccc12` [4-22] were 48% and 61%.
Regarding `O=C(Nc1ccc(-n2ccnc2)cc1)c1ccccn1` [4-24], where the note is “dose 12.5 mg/kg”, the “Serum lipids reduction rate comparing to Control group (%), Means of 3 animals: Total cholesterol” value was 30% and the “Serum lipids reduction rate comparing to Control group (%), Means of 3 animals: Triglyceride” value turned out to be 25%.
The matching figures for `O=C(Nc1ccc(-n2ccnc2)cc1)c1ccc(Cl)nc1` [4-25]: 25% and 52%.
Take `O=C(Nc1ccc(-n2ccnc2)cc1)c1cccnc1` [4-26]: under “dose 6.25 mg/kg”, the “Serum lipids reduction rate comparing to Control group (%), Means of 3 animals: Total cholesterol” value is 22% and the “Serum lipids reduction rate comparing to Control group (%), Means of 3 animals: Triglyceride” value stood at 48%.
Consider `O=C(Nc1ccc(-n2ccnc2)cc1)c1ccncc1` [4-27], for which, where the note is “dose 25 mg/kg”, the “Serum lipids reduction rate comparing to Control group (%), Means of 3 animals: Total cholesterol” value stood at 40% and the “Serum lipids reduction rate comparing to Control group (%), Means of 3 animals: Triglyceride” value stood at 46%.
For the compound `CC(C)c1cc(C(=O)Nc2ccc(-n3ccnc3)cc2)cc(O)n1` [4-28], where the note is “dose 12.5 mg/kg”, the “Serum lipids reduction rate comparing to Control group (%), Means of 3 animals: Total cholesterol” value is on record as 24% and the “Serum lipids reduction rate comparing to Control group (%), Means of 3 animals: Triglyceride” value is 34%.
With `O=C(Nc1ccc(-n2ccnc2)cc1)c1cc2ccccc2o1` [4-31], where the note is “dose 25 mg/kg”, the “Serum lipids reduction rate comparing to Control group (%), Means of 3 animals: Total cholesterol” value was 46% and the “Serum lipids reduction rate comparing to Control group (%), Means of 3 animals: Triglyceride” value is 59%.
Regarding `O=C(Nc1ccc(-n2ccnc2)cc1)C1CCOCC1` [4-32], for the setting “dose 25 mg/kg”, the “Serum lipids reduction rate comparing to Control group (%), Means of 3 animals: Total cholesterol” value is reported as 58% and the “Serum lipids reduction rate comparing to Control group (%), Means of 3 animals: Triglyceride” value amounted to 68%.
For `O=C(Nc1ccc(-n2ccnc2)cc1)c1cnccn1` [4-33], for the setting “dose 12.5 mg/kg”, the “Serum lipids reduction rate comparing to Control group (%), Means of 3 animals: Total cholesterol” value amounted to 35% and the “Serum lipids reduction rate comparing to Control group (%), Means of 3 animals: Triglyceride” value worked out at 44%.
In the case of `O=C(Nc1ccc(-n2ccnc2)cc1)c1n[nH]c2ccccc12` [4-34], for the setting “dose 25 mg/kg”, the “Serum lipids reduction rate comparing to Control group (%), Means of 3 animals: Total cholesterol” value is 37% and the “Serum lipids reduction rate comparing to Control group (%), Means of 3 animals: Triglyceride” value was 39%.
Consider `O=C(Nc1ccc(-n2ccnc2)cc1)c1cnc2ccccc2n1` [4-37], for which, for the setting “dose 12.5 mg/kg”, the “Serum lipids reduction rate comparing to Control group (%), Means of 3 animals: Total cholesterol” value is on record as 26% and the “Serum lipids reduction rate comparing to Control group (%), Means of 3 animals: Triglyceride” value is listed as 25%.
The matching figures for `O=C(Nc1ccc(-n2ccnc2)cc1)c1ccc[nH]1` [4-38]: 32% and 31%.
As for `Cn1cccc1C(=O)Nc1ccc(-n2ccnc2)cc1` [4-39], for the setting “dose 25 mg/kg”, the “Serum lipids reduction rate comparing to Control group (%), Means of 3 animals: Total cholesterol” value was determined as 25% and the “Serum lipids reduction rate comparing to Control group (%), Means of 3 animals: Triglyceride” value turned out to be 45%.
Taken in the same sequence, the figures for `O=C(Nc1ccc(-n2ccnc2)cc1)c1ccc2ccccc2n1` [4-41] were 50% and 67%.
Taken in the same sequence, the figures for `O=C(Nc1ccc(-n2ccnc2)cc1)c1ccc2ccc(O)nc2c1` [4-44] were 21% and 31%.
The matching figures for `O=C1CCC(C(=O)Nc2ccc(-n3ccnc3)cc2)=NN1` [4-46]: 52% and 45%.
As to `O=C(Nc1ccc(-n2ccnc2)cc1)c1ccco1` [4-48], under “dose 25 mg/kg”, the “Serum lipids reduction rate comparing to Control group (%), Means of 3 animals: Total cholesterol” value stood at 76% and the “Serum lipids reduction rate comparing to Control group (%), Means of 3 animals: Triglyceride” value was 85%.
Taken in the same sequence, the figures for `Cc1c(C(=O)Nc2ccc(-n3ccnc3)cc2)oc2ccccc12` [4-62] were 42% and 59%.
Taken in the same sequence, the figures for `COc1cccc2cc(C(=O)Nc3ccc(-n4ccnc4)cc3)oc12` [4-63] were 26% and 29%.
The matching figures for `O=C(Nc1ccc(-n2ccnc2)cc1)c1cnc2ccccc2c1` [4-66]: 55% and 66%.
For the compound `O=C(Nc1ccc(-n2ccnc2)cc1)C1COc2ccccc2O1` (stereo not drawn) [4-70], under “dose 25 mg/kg”, the “Serum lipids reduction rate comparing to Control group (%), Means of 3 animals: Total cholesterol” value is reported as 34% and the “Serum lipids reduction rate comparing to Control group (%), Means of 3 animals: Triglyceride” value stood at 48%.
Taken in the same sequence, the figures for `Cc1ccc2ccc(C(=O)Nc3ccc(-n4ccnc4)cc3)cn12` [4-71] were 45% and 62%.
The matching figures for `O=C(CC1CCc2sccc2C1=O)Nc1ccc(-n2ccnc2)cc1` (stereo not drawn) [4-72]: 37% and 53%.
The matching figures for `O=C(COc1ccc2ncccc2c1)Nc1ccc(-n2ccnc2)cc1` [4-73]: 34% and 50%.
Take `O=C(COc1cnc2ccccc2n1)Nc1ccc(-n2ccnc2)cc1` [4-79]: under “dose 12.5 mg/kg”, the “Serum lipids reduction rate comparing to Control group (%), Means of 3 animals: Total cholesterol” value is given as 29% and the “Serum lipids reduction rate comparing to Control group (%), Means of 3 animals: Triglyceride” value came out at 45%.
`O=C(COc1ccc2c(c1)OCO2)Nc1ccc(-n2ccnc2)cc1` [4-80]: where the note is “dose 25 mg/kg”, the “Serum lipids reduction rate comparing to Control group (%), Means of 3 animals: Total cholesterol” value came out at 40% and the “Serum lipids reduction rate comparing to Control group (%), Means of 3 animals: Triglyceride” value stood at 52%.
Take `O=C(COc1nc2c(c(C(F)(F)F)n1)CCO2)Nc1ccc(-n2ccnc2)cc1` [4-81]: where the note is “dose 12.5 mg/kg”, the “Serum lipids reduction rate comparing to Control group (%), Means of 3 animals: Total cholesterol” value stood at 22% and the “Serum lipids reduction rate comparing to Control group (%), Means of 3 animals: Triglyceride” value is 43%.
Regarding `O=C(CSc1cnccn1)Nc1ccc(-n2ccnc2)cc1` [4-87], under “dose 25 mg/kg”, the “Serum lipids reduction rate comparing to Control group (%), Means of 3 animals: Total cholesterol” value is 34% and the “Serum lipids reduction rate comparing to Control group (%), Means of 3 animals: Triglyceride” value came to 37%.
